The numbers were not newly measured in patent US6100258A, “Aromatic amine compounds that antagonize the pain enhancing effects of prostaglandins” (Zeneca Limited, priority 1995, dated 2000), which cites them from elsewhere.

Turning to `CC(=O)NNC(=O)N1Cc2ccccc2Oc2ccc(Cl)cc21` [SC-19220], the “block of the effect of PGE2” value in the data set with guinea pig ileum and in the data set on dog fundus was “blocks the effect of PGE2” throughout.
